In one assay the target is mGluR5 (UniProt P31424). In words: MGluR5 receptor binding test ([3H]-M-MPEP displacement). To be noted: radioligand [3H]-M-MPEP (2 nM); species not given; read-out: mGlu5 Ki. On the set-up: species or system rat. The method, then: MGluR5 Receptor Binding Tests
Rat cerebro-cortical membrane preparation was used to determine the binding characteristics of reference compounds and novel compounds to the rat mGluR5. The A18 cell line expressing hmGluR5a (purchased from Euroscreen) was used to determine binding characteristics of the chemical compounds to the human mGluR5a receptor. As radioligand [3H]-M-MPEP (2 nM) was used. The nonspecific binding was determined in the presence of 10 μM M-MPEP.

The next assay deals with T1, rat mGluR1 (Rattus norvegicus, UniProt P23385).
T1 construct: rat cerebellar membrane preparation was used; from tissue; host or cells: rat cerebellum (membrane preparation)
T1 sequence (P23385 19-1199): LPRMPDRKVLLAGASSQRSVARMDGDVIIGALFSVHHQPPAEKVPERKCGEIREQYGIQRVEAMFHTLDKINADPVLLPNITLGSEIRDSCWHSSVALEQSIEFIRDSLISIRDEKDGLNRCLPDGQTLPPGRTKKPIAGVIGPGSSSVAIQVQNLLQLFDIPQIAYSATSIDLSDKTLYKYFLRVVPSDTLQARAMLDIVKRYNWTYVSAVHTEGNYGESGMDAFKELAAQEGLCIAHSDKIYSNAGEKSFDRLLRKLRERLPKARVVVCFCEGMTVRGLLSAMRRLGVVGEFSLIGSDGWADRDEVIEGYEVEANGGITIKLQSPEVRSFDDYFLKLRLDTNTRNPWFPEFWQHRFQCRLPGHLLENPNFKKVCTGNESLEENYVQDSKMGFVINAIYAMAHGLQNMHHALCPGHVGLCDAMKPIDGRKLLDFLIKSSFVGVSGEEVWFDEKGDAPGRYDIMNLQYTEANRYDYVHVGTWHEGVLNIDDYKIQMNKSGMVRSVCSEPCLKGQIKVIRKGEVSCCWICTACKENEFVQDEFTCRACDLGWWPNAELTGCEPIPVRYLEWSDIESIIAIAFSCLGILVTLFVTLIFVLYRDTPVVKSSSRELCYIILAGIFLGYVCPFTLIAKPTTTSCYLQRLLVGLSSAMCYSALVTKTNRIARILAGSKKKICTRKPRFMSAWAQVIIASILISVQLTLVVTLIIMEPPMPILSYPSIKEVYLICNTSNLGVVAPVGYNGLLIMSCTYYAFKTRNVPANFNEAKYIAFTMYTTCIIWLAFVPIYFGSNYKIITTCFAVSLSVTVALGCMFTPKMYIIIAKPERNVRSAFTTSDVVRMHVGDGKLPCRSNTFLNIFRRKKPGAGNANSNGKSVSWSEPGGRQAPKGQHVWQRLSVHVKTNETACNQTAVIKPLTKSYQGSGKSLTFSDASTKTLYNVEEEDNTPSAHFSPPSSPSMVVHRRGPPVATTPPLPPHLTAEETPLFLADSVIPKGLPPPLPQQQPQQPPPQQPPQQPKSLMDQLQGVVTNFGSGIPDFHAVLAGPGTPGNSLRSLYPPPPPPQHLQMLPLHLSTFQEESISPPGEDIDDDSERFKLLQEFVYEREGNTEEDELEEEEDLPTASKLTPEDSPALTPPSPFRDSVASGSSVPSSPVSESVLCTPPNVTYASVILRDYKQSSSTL
In words: MGluR1 receptor binding test ([3H]R214127 displacement). To be noted: rat cerebellar membrane; radioligand [3H]R214127 (3 nM); read-out: mGlu1 Ki. The method, then: MGluR1 Receptor Binding Test
MGluR1 receptor binding testes were performed according to modified method of Lavreysen et al. (Mol. Pharm., 2003, 63, 1082). Based on the high homology between the human and rat mGluR1 receptors, rat cerebellar membrane preparation was used to determine the binding characteristics of reference compounds and novel compounds to the rat mGluR1. As radioligand [3H]R214127 (3 nM) was used and the nonspecific binding was determined in the presence of 1 μM of R214127.
IC-50 values were determined from displacement curves by nonlinear regression analysis and were converted by equation method of Cheng and Prusoff (Biochem. Pharmacol., 1973, 22, 3099) to Ki values.

Take `O=S(=O)(c1ccc(Cl)cc1)c1sc2ncccc2c1-c1ccc(Cl)cc1` [Compound 1, 2-(4-Chloro-benzenesulfonyl)-3-(4-chloro-phenyl)-thieno[2,3-b]pyridine]: the Ki (as a rule, a dissociation constant, usually derived from enzyme kinetics or from competition with a known ligand) is under 0.5 µM on mGluR5 and over 1.5 µM on rat mGluR1.
For `[O-][S+](c1ccc(Cl)cc1)c1sc2ncccc2c1-c1ccc(Cl)cc1` (stereo not drawn) [Compound 2] the same measures were under 0.5 µM and under 0.5 µM.
For `O=S(=O)(c1ccc(F)cc1)c1sc2ncccc2c1-c1ccc(Cl)cc1` [Compound 3] the same measures were under 0.5 µM and over 1.5 µM.
In the same order, the values of `Cc1ccc(S(=O)(=O)c2sc3ncccc3c2-c2ccc(Cl)cc2)cc1` [Compound 4] are under 0.5 µM and 0.5 to 1.5 µM.
Turning to `CC(=O)Nc1ccc(S(=O)(=O)c2sc3ncccc3c2-c2ccc(Cl)cc2)cc1` [Compound 5], the Ki at mGluR5 and on rat mGluR1 was over 1.5 µM each time.
In the case of `N#Cc1ccc(S(=O)(=O)c2sc3ncccc3c2-c2ccc(Cl)cc2)cc1` [Compound 7], the figures for the inhibitory constant (Ki) on mGluR5 and at rat mGluR1 were under 0.5 µM and over 1.5 µM, respectively.
In the same order, the values of `O=S(=O)(c1ccccc1)c1sc2ncccc2c1-c1ccc(Cl)cc1` [Compound 8] are under 0.5 µM and over 1.5 µM.
As to `N#Cc1cccc(S(=O)(=O)c2sc3ncccc3c2-c2ccc(Cl)cc2)c1` [Compound 9], the Ki at mGluR5 and at rat mGluR1 was under 0.5 µM throughout.
Regarding `O=S(=O)(c1cccnc1)c1sc2ncccc2c1-c1ccc(Cl)cc1` [Compound 10], the Ki on mGluR5 was under 0.5 µM; at rat mGluR1 it was over 1.5 µM.
Regarding `CCCCS(=O)(=O)c1sc2ncccc2c1-c1ccc(Cl)cc1` [Compound 11], the inhibition constant (Ki) is 0.5 to 1.5 µM at mGluR5 and over 1.5 µM on rat mGluR1.
In the same order, the values of `Cc1nc(C)c(S(=O)(=O)c2sc3ncccc3c2-c2ccc(Cl)cc2)s1` [Compound 12] are 0.5 to 1.5 µM and over 1.5 µM.
On to `O=S(=O)(c1cccs1)c1sc2ncccc2c1-c1ccc(Cl)cc1` [Compound 13], for which the figures for the Ki on mGluR5 and on rat mGluR1 were 0.5 to 1.5 µM and over 1.5 µM, respectively.
For `Cc1noc(C)c1S(=O)(=O)c1sc2ncccc2c1-c1ccc(Cl)cc1` [Compound 14] the same measures were over 1.5 µM and over 1.5 µM.
For `O=S(=O)(Nc1ccc(Cl)cc1)c1sc2ncccc2c1-c1ccc(Cl)cc1` [Compound 15, 3-(4-Chlorophenyl)-thieno[2,3-b]pyridine-2-sulfonic acid (4-chloro-phenyl)-amide], the Ki is 0.5 to 1.5 µM at mGluR5 and over 1.5 µM on rat mGluR1.
Take `O=S(=O)(c1sc2ncccc2c1-c1ccc(Cl)cc1)C1CCCCC1` [Compound 16]: the Ki on mGluR5 and at rat mGluR1 was over 1.5 µM throughout.
As to `O=S(=O)(Cc1ccccc1)c1sc2ncccc2c1-c1ccc(Cl)cc1` [Compound 17], the values for the Ki on mGluR5 and at rat mGluR1 were 0.5 to 1.5 µM and over 1.5 µM, respectively.
Regarding `O=S(=O)(c1ccc(-c2ccccc2)cc1)c1sc2ncccc2c1-c1ccc(Cl)cc1` [Compound 18], the Ki on mGluR5 and at rat mGluR1 was over 1.5 µM in each case.
On to `O=S(=O)(c1cccc(Cl)c1)c1sc2ncccc2c1-c1ccc(Cl)cc1` [Compound 19], for which the figures for the Ki on mGluR5 and at rat mGluR1 were under 0.5 µM and over 1.5 µM, respectively.
Take `O=S(=O)(NCc1ccc(Cl)cc1)c1sc2ncccc2c1-c1ccc(Cl)cc1` [Compound 21, 3-(4-Chlorophenyl)-thieno[2,3-b]pyridine-2-sulfonic acid 4-chloro-benzylamide]: the Ki on mGluR5 and at rat mGluR1 was over 1.5 µM each time.
Turning to `O=S(=O)(c1cccc(C(F)(F)F)c1)c1sc2ncccc2c1-c1ccc(Cl)cc1` [Compound 28], the Ki is under 0.5 µM at mGluR5 and over 1.5 µM on rat mGluR1.
As for `O=S(=O)(c1ccc(Cl)cc1Cl)c1sc2ncccc2c1-c1ccc(Cl)cc1` [Compound 33], the Ki on mGluR5 is 0.5 to 1.5 µM; at rat mGluR1 it was over 1.5 µM.
With `Cc1ccc(-c2c(S(=O)(=O)c3ccc(Cl)cc3)sc3ncccc23)cc1` [Compound 35], the Ki was under 0.5 µM on mGluR5 and over 1.5 µM on rat mGluR1.
In the same order, the values of `CC1CCN(c2c(S(=O)(=O)c3cccc(C#N)c3)sc3ncccc23)CC1` [Compound 36, 2-(3-Cyano-benzenesulfonyl)-3-(4-methyl-piperidinyl)-thieno[2,3-b]pyridine] are under 0.5 µM and under 0.5 µM.
In the same order, the values of `N#Cc1cccc(S(=O)(=O)c2sc3ncccc3c2-c2cccc(Cl)c2)c1` [Compound 38] are under 0.5 µM and under 0.5 µM.
With `N#Cc1cc(F)cc(S(=O)(=O)c2sc3ncccc3c2-c2ccc(Cl)cc2)c1` [Compound 40], the Ki is under 0.5 µM at mGluR5 and 0.5 to 1.5 µM on rat mGluR1.
In the same order, the values of `COc1ccc(S(=O)(=O)c2sc3ncccc3c2-c2ccc(Cl)cc2)cc1` [Compound 48] are under 0.5 µM and under 0.5 µM.
In the same order, the values of `N#Cc1cccc(S(=O)(=O)c2sc3ncccc3c2-c2cccc(F)c2)c1` [Compound 52] are under 0.5 µM and under 0.5 µM.
In the same order, the values of `Cc1cccc(-c2c(S(=O)(=O)c3cccc(C#N)c3)sc3ncccc23)c1` [Compound 53] are under 0.5 µM and 0.5 to 1.5 µM.
Turning to `Cc1ccc(-c2c(S(=O)(=O)c3cccc(C#N)c3)sc3ncccc23)cc1` [Compound 59], the inhibition constant (Ki) on mGluR5 and at rat mGluR1 was under 0.5 µM in each case.
With `COc1cccc(-c2c(S(=O)(=O)c3cccc(C#N)c3)sc3ncccc23)c1` [Compound 67], the Ki at mGluR5 and on rat mGluR1 was under 0.5 µM in each case.
With `N#Cc1cccc(S(=O)(=O)c2sc3nc(F)ccc3c2-c2ccc(F)cc2)c1` [Compound 75], the Ki at mGluR5 was under 0.5 µM; on rat mGluR1 it was over 1.5 µM.
Turning to `O=S(=O)(c1cccc(F)c1)c1sc2ncccc2c1-c1ccc(F)cc1` [Compound 78], the Ki on mGluR5 was under 0.5 µM; at rat mGluR1, over 1.5 µM.
For `Nc1cnc2sc(S(=O)(=O)c3ccc(Cl)cc3)c(-c3ccc(Cl)cc3)c2c1` [Compound 79, 2-(4-Chloro-benzenesulfonyl)-3-(4-chloro-phenyl)-thieno[2,3-b]pyridin-5-ylamine] the same measures were under 0.5 µM and under 0.5 µM.
Take `O=S(=O)(c1ccc(Cl)c(Cl)c1)c1sc2ncccc2c1-c1ccc(Cl)cc1` [Compound 80]: the Ki on mGluR5 is under 0.5 µM; on rat mGluR1 it was 0.5 to 1.5 µM.
For `Cc1ccc(S(=O)(=O)c2sc3ncccc3c2-c2ccc(F)cc2)cc1F` [Compound 82] the same measures were under 0.5 µM and over 1.5 µM.
On to `N#Cc1cccc(S(=O)(=O)c2sc3ncccc3c2-c2ccccc2Cl)c1` [Compound 83], for which the Ki on mGluR5 and on rat mGluR1 was under 0.5 µM in each case.
For `Cc1ccc(S(=O)(=O)c2sc3nc(F)ccc3c2-c2ccc(Cl)cc2)cc1F` [Compound 89], the Ki is under 0.5 µM at mGluR5 and over 1.5 µM at rat mGluR1.
With `COc1ccc(S(=O)(=O)c2sc3ncccc3c2-c2ccc(F)cc2)cc1F` [Compound 126], the Ki at mGluR5 is under 0.5 µM.
With `COc1ccc(S(=O)(=O)c2sc3ncccc3c2-c2cccc(F)c2)cc1F` [Compound 127], the Ki at mGluR5 is under 0.5 µM.
Still for that read-out and setting: in the case of `COc1ccc(S(=O)(=O)c2sc3ncccc3c2-c2cccc(Cl)c2)cc1F` [Compound 128] it was under 0.5 µM; in that of `O=S(=O)(c1ccc(Cl)cc1)c1sc2ncccc2c1N1CCCC1` [Compound 129], under 0.5 µM.
With `O=S(=O)(c1ccc(Cl)cc1)c1sc2ncccc2c1-c1ccc(F)cc1F` [Compound 130], at mGluR5, the Ki was under 0.5 µM.
Consider `Nc1cnc2sc(S(=O)(=O)c3ccc(Cl)cc3)c(-c3ccccc3F)c2c1` [Compound 131], for which, on mGluR5, the Ki was under 0.5 µM.
As to `N#Cc1cc(F)cc(S(=O)(=O)c2sc3ncccc3c2-c2ccccc2F)c1` [Compound 132], the Ki on mGluR5 was under 0.5 µM.
As to `O=S(=O)(c1ccc(Cl)cc1)c1sc2ncccc2c1-n1cncn1` [Compound 133], the Ki at mGluR5 fell in the range of 0.5 to 1.5 µM.
Same read-out and setting: in the case of `O=S(=O)(c1ccc(Cl)cc1)c1sc2ncccc2c1N1CCC(F)(F)CC1` [Compound 134] it was under 0.5 µM; in that of `CN(C)c1ccnc2sc(S(=O)(=O)c3ccc(Cl)cc3)c(-c3ccc(Cl)cc3)c12` [Compound 135, 2-(4-Chloro-benzenesulfonyl)-3-(4-chloro-phenyl)-4-dimethylamino-thieno[2,3-b]pyridine], 0.5 to 1.5 µM.
The same measure, in the same setting: then `N#Cc1cc(F)cc(S(=O)(=O)c2sc3ncccc3c2-c2cccc(Cl)c2)c1` [Compound 136], with under 0.5 µM; and `O=S(=O)(c1ccc(Cl)cc1)c1sc2ncc(F)cc2c1-c1cccc(F)c1` [Compound 137, 2-(4-Chloro-benzenesulfonyl)-3-(3-fluoro-phenyl)-5-fluoro-thieno[2,3-b]pyridine], with under 0.5 µM; and `N#Cc1cc(F)cc(S(=O)(=O)c2sc3nc(Cl)ccc3c2-c2cccc(F)c2)c1` [Compound 138], with under 0.5 µM.
Turning to `N#Cc1cc(F)cc(S(=O)(=O)c2sc3nc(F)ccc3c2-c2cccc(F)c2)c1` [Compound 139], the Ki on mGluR5 was under 0.5 µM.
In the case of `O=S(=O)(c1ccc(Cl)cc1)c1sc2ncccc2c1N1CCC(CO)CC1` [Compound 140], the Ki on mGluR5 is under 0.5 µM.
On the same count and under the same terms, in the case of `O=S(=O)(c1ccc(Cl)cc1)c1sc2ncccc2c1N1CC[C@@H](F)C1` [Compound 141] it was under 0.5 µM.

For the origin of these results see US20100022521A1, “COMPOUNDS” (Hansa Metallwerke AG, priority 2005, published 2010).
